# Columns and labels:
# [1] = biological target: T1, ACSS2 in MDA-MB-468 cells (Homo sapiens, UniProt Q9NR19); test: Cellular fatty-acid IC50: 13C-acetate incorporation into fatty acids (palmitate), LC-MS; assay type: cell-based; conditions: hypoxic conditions (1% O2), 75% charcoal stripped serum, 5 hours, 13C-acetate into palmitate, read-out: Cellular Fatty-acid IC50 High Serum MDA468
# T1 construct: endogenous in cells; host or cells: MDA-MB-468 cells, hypoxia (1% O2)
# Method: Cellular Fatty-Acid IC50 Determination:
# The cellular activity of ACSS2 was measured in MDA-MB-468 cells under hypoxic conditions by tracing the incorporation of labelled carbons from ^13C-acetate into newly synthesized fatty acids. The assay was performed using 75% charcoal stripped serum (high serum conditions).
# MDA-MB-468 cells were seeded in 12-well plates (0.35×10^6 cells per well) in plating medium (Dulbecco's Modified Eagle Medium containing 25 mM D-glucose, 1 mM sodium pyruvate, 10% v/v fetal bovine serum, and 2 mM glutamine) and incubated for 24 hours under hypoxic conditions (1% O2).
# The next day, tracing medium containing DMEM (01-057-1A) containing 75% charcoal stripped serum (Biological industries 04-201-1A), 3.5 μg/mL Biotin (Sigma-Aldrich B4639), 1 mM Pyruvate, 5.5 mM Glucose, 0.65 mM Glutamine and 0.5 mM ^13C-Acetate (Sigma-Aldrich #282014) with serial dilutions of the compounds in the range of 0.000512-1000 nM were prepared. The plating medium was replaced with 1 mL tracing medium plus compounds and the cells were incubated for 5 hours under hypoxic conditions (1% O2). Plating medium in control wells (without cells or without compounds) was replaced with 1 mL tracing medium containing 0.01% v/v DMSO.
# The level of ^13C-acetate incorporation into fatty acids (palmitate) was measured by LC-MS analysis and IC50 as described below:
# Sample Preparation for LC-MS
# • a) Cells were washed twice with cold phosphate buffered saline (PBS), scraped into 0.5 mL EDTA pH 8.0, and transferred into 1.1 mL V-shaped HPLC glass tubes. • b) The cell suspensions were centrifuged for 5 minutes at 400×g, 4° C. and the supernatants were removed. • c) Cell pellets were frozen at −80° C.
# • d) Cell pellets were resuspended in 0.2 mL of 80% v/v ethanol in water containing 0.02 M NaOH in 1.1 ml glass (v-bottom) HPLC vials. • e) The vials were closed tight and incubated at 66° C. for 60 minutes. • f) Acetonitrile containing 2% v/v formic acid (150 μL) was added to each vial and the mixtures were transferred to Eppendorf tubes for centrifugation at 17 000×g for 20 minutes. • g) Supernatants were transferred to LC-MS vials.
# The relative palmitate concentration was measured by LC-MS in reconstructed selected ion monitoring (RSIM) mode and negative ion mode. Samples were analyzed on a Phenomenex Kinetex 2.6 μm XB-C18 150×2.1 mm column at 45° C. (0.4 mL/minute flow rate) using: • a) A gradient from 15% A/85% C to 100% C for 0 to 2 minutes (A: water containing 5% v/v acetonitrile, 10 mM ammonium acetate, and 10 mM acetic acid; C: a mixture of 50% v/v acetonitrile and 50% v/v methanol). • b) Isocratic flow (100% C) for 2 to 5 minutes. • c) Equilibration in isocratic conditions (15% A/85% C) for 5 to 8 minutes.
# Palmitate was eluted at approximately 3.4 minutes.
# The percent inhibition was calculated relative to the sample without compound and after background deduction. IC50 values were calculated using non-linear regression curve fit analysis with 0% and 100% constraints (CDD Vault, Collaborative Drug Discovery, Inc. or GraphPad Prism).
# The inhibitory activities of each compound against ACSS2 in MDA-MB-468 cells under high serum conditions, as determined by ^13C-acetate incorporation into fatty acids (palmitate), are presented in Table 2.
# human ACSS2 protein = biological target: T2, human ACSS2 protein (Homo sapiens, UniProt Q9NR19); test: ACSS2 cell-free activity assay (pyrophosphatase-coupled, Biomol green); conditions: 10 nM human ACSS2, 90 minutes at 37 C, absorbance at 620 nm; read-out: ACSS2 Biochemical IC50
# T2 construct: purchased OriGene Technologies, Inc
# T2 sequence (Q9NR19 whole entry): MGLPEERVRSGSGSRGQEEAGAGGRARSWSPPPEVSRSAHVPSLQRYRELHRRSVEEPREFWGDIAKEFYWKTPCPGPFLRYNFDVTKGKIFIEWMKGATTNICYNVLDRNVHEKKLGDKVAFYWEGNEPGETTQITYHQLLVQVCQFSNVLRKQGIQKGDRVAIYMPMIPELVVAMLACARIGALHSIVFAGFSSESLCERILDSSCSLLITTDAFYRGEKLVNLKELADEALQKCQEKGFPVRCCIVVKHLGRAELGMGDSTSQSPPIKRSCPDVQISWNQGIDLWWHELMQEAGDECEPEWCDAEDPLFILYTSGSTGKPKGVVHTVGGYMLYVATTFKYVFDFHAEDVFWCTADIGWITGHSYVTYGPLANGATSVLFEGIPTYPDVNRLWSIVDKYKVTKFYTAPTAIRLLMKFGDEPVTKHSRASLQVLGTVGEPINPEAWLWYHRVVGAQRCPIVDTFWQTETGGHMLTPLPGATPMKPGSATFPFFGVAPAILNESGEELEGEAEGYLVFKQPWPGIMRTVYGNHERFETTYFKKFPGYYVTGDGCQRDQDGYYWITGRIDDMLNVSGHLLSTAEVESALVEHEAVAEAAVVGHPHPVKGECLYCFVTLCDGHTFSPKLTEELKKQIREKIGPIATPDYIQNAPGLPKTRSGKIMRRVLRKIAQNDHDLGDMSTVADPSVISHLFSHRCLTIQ
# Summary of the method: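 10 nM human ACSS2 incubated 90 min at 37 C with compound, 300 μM ATP, 10 μM CoA, 5 mM NaAc in pH 7.5 Hepes buffer with 0.5 U/ml pyrophosphatase. Released phosphate detected with Biomol Green at 620 nm; IC50 by non-linear regression constrained to 0% and 100%.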
# human ACSS1 protein = biological target: T3, human ACSS1 protein (Homo sapiens, UniProt Q9NUB1); test: ACSS1 cell-free activity assay (pyrophosphatase-coupled, Biomol green); assay type: biochemical; conditions: 5 nM human ACSS1, 30 minutes at room temperature, absorbance at 620 nm; for IC50: read-out: ACSS1 Biochemical IC50
# T3 construct: purchased MyBioSource
# T3 sequence (Q9NUB1 38-689): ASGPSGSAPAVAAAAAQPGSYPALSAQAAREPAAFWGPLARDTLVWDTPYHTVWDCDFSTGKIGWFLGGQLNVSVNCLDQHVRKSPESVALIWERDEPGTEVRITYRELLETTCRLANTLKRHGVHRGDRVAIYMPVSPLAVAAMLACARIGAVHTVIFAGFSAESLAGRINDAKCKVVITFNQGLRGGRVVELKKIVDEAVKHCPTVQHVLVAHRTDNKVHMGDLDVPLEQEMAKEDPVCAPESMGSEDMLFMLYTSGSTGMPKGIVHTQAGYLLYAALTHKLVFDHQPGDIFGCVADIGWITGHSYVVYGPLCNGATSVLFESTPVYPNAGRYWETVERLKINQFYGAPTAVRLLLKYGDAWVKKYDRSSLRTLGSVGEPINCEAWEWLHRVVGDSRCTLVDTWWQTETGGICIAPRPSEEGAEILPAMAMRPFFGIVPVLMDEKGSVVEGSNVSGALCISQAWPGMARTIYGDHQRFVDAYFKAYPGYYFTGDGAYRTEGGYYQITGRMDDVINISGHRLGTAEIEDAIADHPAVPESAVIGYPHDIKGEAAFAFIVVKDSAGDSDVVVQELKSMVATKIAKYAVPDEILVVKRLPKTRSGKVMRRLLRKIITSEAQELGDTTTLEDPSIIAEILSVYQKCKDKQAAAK
# Summary of the method: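 5 nM human ACSS1 incubated 30 min at RT with compound in pH 7.5 Hepes buffer with 15 μM CoA, 5 mM acetate, 300 μM ATP, 2 mM MgCl2 and pyrophosphatase. Released phosphate detected with Biomol Green (30 min), absorbance 620 nm. IC50 from constrained non-linear regression.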
# T1 sequence (Q9NR19 whole entry): as the sequence (Q9NR19 whole entry) above
Structure (SMILES),IC50 [1] [nM],IC50 (human ACSS2 protein) [nM],ACSS1 Biochemical IC50 (nM) (human ACSS1 protein),IC50 (human ACSS1 protein) [nM]
"Cc1[nH]c(-c2ccc(OCCCN3CCCC3)cc2)[n+]([O-])c1C(=O)Nc1cccc(C(F)(F)C2CC2)c1 [Compound 174, 4-((3-(cyclopropyldifluoromethyl)phenyl)carbamoyl)-5-methyl-2-(4-(3-(pyrrolidin-1-yl)propoxy)phenyl)-1H-imidazole 3-oxide]",> 50,1 to 30,Inactive,
"Cc1cccc(C)c1-c1cc(OCCN2CCCC2)cc(-c2[nH]c(C)c(C(=O)Nc3cccc(C(F)(F)C4CC4)c3)[n+]2[O-])c1 [Compound 183, 4-((3-(cyclopropyldifluoromethyl)phenyl)carbamoyl)-2-(2′,6′-dimethyl-5-(2-(pyrrolidin-1-yl)ethoxy)-[1,1′-biphenyl]-3-yl)-5-methyl-1H-imidazole 3-oxide]",> 50,< 1,Inactive,
"CCC(F)(F)c1cccc(NC(=O)c2c(C)[nH]c(-c3cc(CCN4CCOCC4)c(OC)c(-c4c(C)cccc4C)c3)[n+]2[O-])c1 [Compound 192, 4-((3-(1,1-difluoropropyl)phenyl)carbamoyl)-2-(6-methoxy-2′,6′-dimethyl-5-(2-morpholinoethyl)-[1,1′-biphenyl]-3-yl)-5-methyl-1H-imidazole 3-oxide]",20 to 50,< 1,,> 30
"CNC(=O)c1cccc(NC(=O)c2c(C)[nH]c(-c3ccc(F)c(-c4c(C)cccc4C)c3)[n+]2[O-])c1 [Compound 177, 2-(6-fluoro-2′,6′-dimethyl-[1,1′-biphenyl]-3-yl)-5-methyl-4-((3-(methylcarbamoyl)phenyl)carbamoyl)-1H-imidazole 3-oxide]",< 20,< 1,,> 30
"CNC(=O)c1cccc(NC(=O)c2c(C)[nH]c(-c3ccnc(-c4c(C)cccc4C)c3)[n+]2[O-])c1 [Compound 178, 2-(2-(2,6-dimethylphenyl)pyridin-4-yl)-5-methyl-4-((3-(methylcarbamoyl)phenyl)carbamoyl)-1H-imidazole 3-oxide]",< 20,< 1,,> 30
"CNC(=O)c1cccc(NC(=O)c2c(C)[nH]c(-c3ccc(OC)c(-c4c(C)cccc4C)n3)[n+]2[O-])c1 [Compound 186, 2-(6-(2,6-dimethylphenyl)-5-methoxypyridin-2-yl)-5-methyl-4-((3-(methylcarbamoyl)phenyl)carbamoyl)-1H-imidazole 3-oxide]",< 20,< 1,Inactive,
"CCC(F)(F)c1cccc(NC(=O)c2c(C)[nH]c(-c3cccc(-c4c(C)cccc4C)n3)[n+]2[O-])c1 [Compound 111, 4-((3-(1,1-difluoropropyl)phenyl)carbamoyl)-2-(6-(2,6-dimethylphenyl)pyridin-2-yl)-5-methyl-1H-imidazole 3-oxide]",> 50,< 1,Inactive,

# Other lines, results leading:
IC50 [1] [nM],IC50 (human ACSS2 protein) [nM],ACSS1 Biochemical IC50 (nM) (human ACSS1 protein),IC50 (human ACSS1 protein) [nM],Structure (SMILES)
< 20,< 1,Inactive,,"COc1ccc(-c2[nH]c(C)c(C(=O)Nc3cccc(C(F)(F)C4CC4)c3)[n+]2[O-])cc1-c1c(C)cncc1C [Compound 105, 4-((3-(cyclopropyldifluoromethyl)phenyl)carbamoyl)-2-(3-(3,5-dimethylpyridin-4-yl)-4-methoxyphenyl)-5-methyl-1H-imidazole 3-oxide]"
20 to 50,< 1,Inactive,,"COc1ccc(-c2[nH]c(C)c(C(=O)Nc3cccc(C(F)(F)C4CC4)c3)[n+]2[O-])cc1-c1c(C)cccc1C [Compound 104, 4-((3-(cyclopropyldifluoromethyl)phenyl)carbamoyl)-2-(6-methoxy-2′,6′-dimethyl-[1,1′-biphenyl]-3-yl)-5-methyl-1H-imidazole 3-oxide]"
20 to 50,< 1,Inactive,,"COc1ccc(-c2[nH]c(C)c(C(=O)Nc3cccc(-c4cn(C)nn4)c3)[n+]2[O-])cc1-c1c(C)cccc1C [Compound 199, 2-(6-methoxy-2′,6′-dimethyl-[1,1′-biphenyl]-3-yl)-5-methyl-4-((3-(1-methyl-1H-1,2,3-triazol-4-yl)phenyl)carbamoyl)-1H-imidazole 3-oxide]"
20 to 50,< 1,Inactive,,"Cc1cccc(C)c1-c1cc(C#N)cc(-c2[nH]c(C)c(C(=O)Nc3cccc(C(F)(F)C4CC4)c3)[n+]2[O-])c1 [Compound 135, 2-(5-cyano-2′,6′-dimethyl-[1,1′-biphenyl]-3-yl)-4-((3-(cyclopropyldifluoromethyl)phenyl)carbamoyl)-5-methyl-1H-imidazole 3-oxide]"
> 50,< 1,Inactive,,"Cc1cccc(C)c1-c1cc(-c2[nH]c(C)c(C(=O)Nc3cccc(C(F)(F)F)c3)[n+]2[O-])ccc1F [Compound 203, 2-(6-fluoro-2′,6′-dimethyl-[1,1′-biphenyl]-3-yl)-5-methyl-4-((3-(trifluoromethyl)phenyl)carbamoyl)-1H-imidazole 3-oxide]"
< 20,< 1,Inactive,,"CCC(F)(F)c1cccc(NC(=O)c2c(C)[nH]c(-c3ccc(OC)c(-c4c(C)cccc4C)c3)[n+]2[O-])c1 [Compound 102, 4-((3-(1,1-difluoropropyl)phenyl)carbamoyl)-2-(6-methoxy-2′,6′-dimethyl-[1,1′-biphenyl]-3-yl)-5-methyl-1H-imidazole 3-oxide]"
> 50,< 1,Inactive,,"COc1cc(Cl)c(-c2[nH]c(C)c(C(=O)Nc3cccc(C(F)(F)C4CC4)c3)[n+]2[O-])cc1-c1c(C)cccc1C [Compound 198, 2-(4-chloro-6-methoxy-2′,6′-dimethyl-[1,1′-biphenyl]-3-yl)-4-((3-(cyclopropyldifluoromethyl)phenyl)carbamoyl)-5-methyl-1H-imidazole 3-oxide]"

# Source: patent publication US20230174507A1, “IMIDAZOLE 3-OXIDE DERIVATIVE BASED ACSS2 INHIBITORS AND METHODS OF USE THEREOF” (METABOMED LTD., priority 2020, published 2023)
